In series [1] the target is T1, Tyrosine-protein phosphatase non-receptor type 1 (Homo sapiens) (UniProt P18031).
T1 sequence (whole entry): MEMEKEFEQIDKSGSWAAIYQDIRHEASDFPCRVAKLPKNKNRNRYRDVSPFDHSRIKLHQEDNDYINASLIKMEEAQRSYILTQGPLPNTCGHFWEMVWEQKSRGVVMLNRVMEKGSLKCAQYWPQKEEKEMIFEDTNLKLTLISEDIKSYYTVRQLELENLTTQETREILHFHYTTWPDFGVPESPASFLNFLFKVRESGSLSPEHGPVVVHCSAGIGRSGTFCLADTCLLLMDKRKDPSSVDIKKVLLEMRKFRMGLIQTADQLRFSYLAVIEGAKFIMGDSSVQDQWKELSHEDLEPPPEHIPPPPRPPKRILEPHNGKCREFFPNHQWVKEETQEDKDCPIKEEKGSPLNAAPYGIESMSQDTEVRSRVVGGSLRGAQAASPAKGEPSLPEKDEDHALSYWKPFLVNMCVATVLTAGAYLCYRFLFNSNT
Briefly: Reversible inhibition of recombinant human PTP-1B expressed in Escherichia coli TB1 at 10 times IC50 using p-nitrophenyl phosphate as substrate preincubated for 90 mins followed by 400 fold dilution.

Series [2] has as its target T2, Low molecular weight phosphotyrosine protein phosphatase (Homo sapiens, UniProt P24666).
T2 sequence (P24666 whole entry): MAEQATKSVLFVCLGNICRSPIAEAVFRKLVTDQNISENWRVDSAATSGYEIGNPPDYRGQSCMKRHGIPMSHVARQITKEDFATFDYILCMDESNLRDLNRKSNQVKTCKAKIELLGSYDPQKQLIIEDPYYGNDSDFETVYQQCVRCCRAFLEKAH
Briefly: Inhibition of recombinant human LMW-PTP isoform 1 expressed in Escherichia coli TB1.

Series [3] deals with T3, Tyrosine-protein phosphatase non-receptor type 1 (Homo sapiens, UniProt P18031).
T3 sequence (P18031 whole entry): T1 sequence (whole entry)
Kind of series: Competitive inhibition of recombinant human PTP-1B expressed in Escherichia coli TB1 using p-nitrophenyl phosphate as substrate by Lineweaver-Burk plot analysis.

Series [4] addresses T3, Tyrosine-protein phosphatase non-receptor type 1. Briefly: Inhibition of recombinant human PTP-1B expressed in Escherichia coli TB1 using p-nitrophenyl phosphate as substrate.
Series [5] deals with T1, Tyrosine-protein phosphatase non-receptor type 1 (Homo sapiens). Briefly: Inhibition of recombinant human PTP-1B expressed in Escherichia coli TB1 at 50 uM using p-nitrophenyl phosphate as substrate.
Series [6] concerns the target T2, Low molecular weight phosphotyrosine protein phosphatase. Briefly: Inhibition of recombinant human LMW-PTP isoform 2 expressed in Escherichia coli TB1.
Series [7] deals with Rattus norvegicus. Kind of series: Antidiabetic activity in non insulin dependent streptozotocin/nicotinamide-induced diabetic Wistar rat model assessed as decrease in blood glucose levels at 50 mg/kg, ig administered as single dose measured after 7 hrs by glucometer. It counts as functional. Set-up: scale not given: the % may be the effect or the level left.
Series [8] has as its target T4, Tyrosine-protein phosphatase non-receptor type 2 (Homo sapiens, UniProt P17706).
T4 sequence (P17706 whole entry): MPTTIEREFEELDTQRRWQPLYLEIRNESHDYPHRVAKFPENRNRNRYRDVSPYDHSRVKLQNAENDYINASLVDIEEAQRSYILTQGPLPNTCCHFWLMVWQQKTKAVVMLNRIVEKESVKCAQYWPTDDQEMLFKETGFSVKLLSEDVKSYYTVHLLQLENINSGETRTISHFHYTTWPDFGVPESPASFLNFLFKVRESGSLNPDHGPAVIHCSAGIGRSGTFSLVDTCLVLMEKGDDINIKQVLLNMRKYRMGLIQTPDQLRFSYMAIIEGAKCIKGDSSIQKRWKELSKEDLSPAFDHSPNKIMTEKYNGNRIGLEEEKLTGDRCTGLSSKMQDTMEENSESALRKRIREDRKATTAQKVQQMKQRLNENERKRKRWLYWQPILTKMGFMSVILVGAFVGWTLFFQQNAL
Briefly: Inhibition of recombinant human TC-PTP expressed in Escherichia coli TB1.

The test system of series [9] is Rattus norvegicus. Briefly: Antidiabetic activity in non insulin dependent streptozotocin/nicotinamide-induced diabetic Wistar rat model assessed as decrease in blood glucose levels at 50 mg/kg, ig administered as single dose measured after 3 hrs by glucometer. It counts as functional, organism-based.
Series [10] can be described thus: Solubility of compound in DMSO. It counts as physicochemical.
The species named for series [11] is Homo sapiens. Briefly: Selectivity ratio of IC50 for recombinant human LMW-PTP isoform 2 expressed in Escherichia coli TB1 to IC50 for recombinant human PTP-1B expressed in Escherichia coli TB1.
For series [12], the species on record is Homo sapiens. Briefly: Selectivity ratio of IC50 for recombinant human LMW-PTP isoform 1expressed in Escherichia coli TB1 to IC50 for recombinant human PTP-1B expressed in Escherichia coli TB1.
Series [13] concerns the target T1, Tyrosine-protein phosphatase non-receptor type 1 (Homo sapiens). Briefly: Partial reversible inhibition of recombinant human PTP-1B expressed in Escherichia coli TB1 at 10 times IC50 using p-nitrophenyl phosphate as substrate preincubated for 90 mins followed by 400 fold dilution.

Each structure is given as a SMILES string. Activity calls are given as the source filed them. The calls are words filed in the database; no cut-off is given here.

Consider `COC(=O)[C@]12CCC(C)(C)C=C1[C@H]1CC[C@@H]3[C@@]4(C)CCC(=O)C(C)(C)[C@@H]4CC[C@@]3(C)[C@]1(C)CC2`, for which the inhibition entry in [1] is “Active”. Moreover, the IC50 in [2] is 33.7 µM; in series [4], 10.8 µM; in series [6], 62.5 µM; in [8], over 100 µM. Besides, the Ki in series [3] stood at 3.1 µM. Besides, in [5], the inhibition came to 100%. The Activity in the series on Rattus norvegicus [7] is listed as 40%. Further, the result with Rattus norvegicus [9] was Active.
With `CC1(C)CC[C@]2(O)CC[C@]3(C)[C@H](CC[C@@H]4[C@@]5(C)CCC(=O)OC(C)(C)[C@@H]5CC[C@]43C)C23OC13` (stereo partly specified), the inhibition entry in series [5] is “Active”.
The same measure, in the same setting: the result for `CC1(C)C=C2[C@H]3CC[C@@H]4[C@@]5(C)CCC(=O)C(C)(C)[C@@H]5CC[C@@]4(C)[C@]3(C)CC[C@@]2(C(=O)NC2CCCCC2)CC1` reads “Active”; that for `CCOC(=O)[C@]12CCC(C)(C)C=C1[C@H]1CC[C@@H]3[C@@]4(C)CCC(=O)C(C)(C)[C@@H]4CC[C@@]3(C)[C@]1(C)CC2`, “Active”.
As for `CC1(C)C=C2[C@H]3CC[C@@H]4[C@@]5(C)CCC6(OCCO6)C(C)(C)[C@@H]5CC[C@@]4(C)[C@]3(C)CC[C@@]2(CO)CC1`, in series [10], the solubility result is “soluble”. Further, the results for the Ratio IC50 in the series listed under Homo sapiens [11] and in the series filed under Homo sapiens [12] were 4 and 2, respectively. For the same compound, the IC50 in series [2] was 16.1 µM; in [4] it was 7.5 µM; in [6] it was 29.3 µM; in [8] it was over 100 µM. Moreover, the inhibition entry in [13] is “Active”. In addition, in series [5], the inhibition was 100%.

Values taken from ChEMBL document CHEMBL3784954, “In vitro and in silico PTP-1B inhibition and in vivo antidiabetic activity of semisynthetic moronic acid derivatives” (Bioorg Med Chem Lett, 2016).
